From PMC6503450, “Proteases Underground: Analysis of the Maize Root Apoplast Identifies Organ Specific Papain-Like Cysteine Protease Activity” (Frontiers in Plant Science, 2019)

Columns and labels:
CP1C = target: T1, CP1C (Zea mays, UniProt B4FS90); test: fluorogenic substrate cleavage assay, apoplastic fluid of overexpressing N. benthamiana; assay type: cell-based; settings: 10 uM Z-LR-AMC, pH 6, 0.5 mM DTT; covalent irreversible active-site inhibitor
T1 sequence (B4FS90 150-389 limits assumed): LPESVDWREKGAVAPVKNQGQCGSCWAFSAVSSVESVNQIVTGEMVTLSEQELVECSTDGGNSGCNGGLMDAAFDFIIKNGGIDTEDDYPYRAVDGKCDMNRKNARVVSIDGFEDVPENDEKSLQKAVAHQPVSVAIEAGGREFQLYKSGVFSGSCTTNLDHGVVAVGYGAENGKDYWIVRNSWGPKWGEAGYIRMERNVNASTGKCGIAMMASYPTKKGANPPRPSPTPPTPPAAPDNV

CP1B = target: T2, CP1B (Zea mays, UniProt K7TP58); test: as above; assay type: cell-based
T2 construct: gene LOC100283284
T2 sequence (K7TP58 135-372 limits assumed): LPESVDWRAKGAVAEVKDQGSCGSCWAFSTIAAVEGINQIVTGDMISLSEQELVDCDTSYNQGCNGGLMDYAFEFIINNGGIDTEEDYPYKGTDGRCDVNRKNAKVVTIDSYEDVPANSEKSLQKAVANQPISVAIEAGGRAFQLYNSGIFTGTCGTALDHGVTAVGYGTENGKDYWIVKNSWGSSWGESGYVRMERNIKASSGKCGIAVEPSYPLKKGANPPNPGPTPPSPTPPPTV

IC50 (CP1C): 3.2 ± 0.2 nM
IC50 (CP1B): 10 ± 0.9 nM
Compound: CC(C)C[C@H](NC(=O)[C@H]1O[C@@H]1C(=O)O)C(=O)NCCCCN=C(N)N [E-64]
